In patent US20240391862A1, “(1,4,5-TRISUBSTITUTED-1H-PYRAZOL-3-YL)OXY-2-ALKOXY ALKYL ACIDS AND THEIR DERIVATIVES, THEIR SALTS AND THEIR USE AS HERBICIDAL AGENTS” (Bayer AKtiengesellschaft, priority 2021, published 2024):

Legend:
ZEAMX [1] = test: Post-emergence herbicidal effect and crop plant compatibility, greenhouse pot test; assay type: in vivo, Zea mays; conditions: Zea mays, 504 h, one-leaf stage, rated visually after about 3 weeks vs untreated controls; for plant injury at 20 g/ha: read-out: Post-emergence effect at 20 g/ha against ZEAMX in %; for plant injury at 80 g/ha: read-out: Post-emergence effect at 80 g/ha against ZEAMX in %; for plant injury at 320 g/ha: read-out: Post-emergence effect at 320 g/ha against ZEAMX in %
Summary of the method: (§1)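 Greenhouse pot test: weeds and crops sown in sandy loam, sprayed post-emergence at one-leaf stage (2–3 weeks after sowing) with WP or EC formulations plus 0.5% additive at 600 l/ha water, rates 20–320 g/ha. Visual rating about 3 weeks later versus untreated controls (100% = dead, 0% = as control).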

TRZAS = test: as above; assay type: in vivo, Triticum aestivum; conditions: Triticum aestivum, 504 h, 20 g/ha, one-leaf stage, rated visually after about 3 weeks vs untreated controls, read-out: Post-emergence effect at 20 g/ha against TRZAS in %
Summary of the method: as §1

BRSNW = assay type: in vivo, Brassica napus; conditions: one-leaf stage, rated visually after about 3 weeks vs untreated controls
Text: (§2) • ALOMY: Alopecurus myosuroides SETVI: Setaria viridis • AVEFA: Avena fatua POLCO: Fallopia convolvulus • AMARE: Amaranthus retroflexus ECHCG: Echinochloa crus-galli • LOLRJ: Lolium rigidum STEME: Stellaria media • VERPE: Veronica persica MATIN: Tripleurospermum inodorum • DIGSA: Digitaria sanguinalis ABUTH: Abutylon threophrasti • TRZAS: Triticum aestivum VIOTR: Viola tricolor • BRSNW: Brassica napus ZEAMX: Zea mays • PHBPU: Ipomoea purpurea GLXMA: Glycine max • ORYSA: Oryza sativa HORMU: Hordeum murinum
Seeds of monocotyledonous and dicotyledonous weeds and crop plants are placed in sandy loam in plastic or organic planting pots, covered with soil and cultivated in a greenhouse under controlled growth conditions. 2 to 3 weeks after sowing, the trial plants are treated at the one-leaf stage. The compounds of the invention, formulated in the form of wettable powders (WP) or as emulsion concentrates (EC), are then sprayed onto the green parts of the plants as aqueous suspension or emulsion with addition of 0.5% additive at a water application rate of 600 l/ha (converted). After the test plants have been kept in the greenhouse under optimum growth conditions for about 3 weeks, the activity of the preparations is rated visually in comparison to untreated controls. For example, 100% activity=the plants have died, 0% activity=like control plants.
Tables 20a to 38c below show the effects/crop compatibilities of selected compounds of the general formula (I) on various harmful plants at an application rate corresponding to 20 to 320 g/ha, which were obtained by the trial procedure specified above.

VIOTR [2] = test: Post-emergence herbicidal effect, greenhouse pot test; assay type: in vivo, Viola tricolor; conditions: Viola tricolor, 504 h, 320 g/ha, read-out: Post-emergence effect against VIOTR in %
Summary of the method: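 Visual % activity scored roughly 3 weeks post-spray against untreated plants, where 100% means death and 0% equals control. Plants were treated at the one-leaf stage, 2 to 3 weeks after sowing in sandy loam, at 20 to 320 g/ha.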

ZEAMX [3] = test: Pre-emergence herbicidal effect and crop plant compatibility, greenhouse pot test; assay type: in vivo, Zea mays; conditions: scored visually after about 3 weeks vs untreated controls
Text: (§3) Seeds of monocotyledonous and dicotyledonous weed plants and crop plants are placed in plastic or organic planting pots and covered with soil. The compounds of the invention, formulated in the form of wettable powders (WP) or as emulsion concentrates (EC), are then applied to the surface of the covering soil as aqueous suspension or emulsion with addition of 0.5% additive at a water application rate equivalent to 600 l/ha. After the treatment, the pots are placed in a greenhouse and kept under good growth conditions for the trial plants. After about 3 weeks, the effect of the preparations is scored visually in comparison with untreated controls as percentages. For example, 100% activity=the plants have died, 0% activity=like control plants.
(§4) Tables 1a to 19c below show the effects/crop compatibilities of selected compounds of the general formula (I) on various harmful plants at an application rate corresponding to 20 to 320 g/ha, which were obtained by the trial procedure specified above.
as §2

ABUTH = test: Pre-emergence herbicidal effect, greenhouse pot test; assay type: in vivo, Abutilon theophrasti; conditions: scored visually after about 3 weeks vs untreated controls
Text: as §3, §4, §2

ALOMY = test: as above; assay type: in vivo, Alopecurus myosuroides; conditions: scored visually after about 3 weeks vs untreated controls
Text: as §3, §4, §2

AMARE = test: as above; assay type: in vivo, Amaranthus retroflexus; conditions: scored visually after about 3 weeks vs untreated controls
Summary of the method: (§5)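 Visual scoring at about 3 weeks after treatment, as percent versus untreated controls, 100% meaning dead plants and 0% like controls. Compounds, formulated as wettable powders or emulsion concentrates, were sprayed onto the covering soil of freshly sown pots at 20 to 320 g/ha in 600 l/ha water with 0.5% additive.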

AVEFA = test: as above; assay type: in vivo, Avena fatua; conditions: scored visually after about 3 weeks vs untreated controls
Text: as §3, §4, §2

DIGSA = test: as above; assay type: in vivo, Digitaria sanguinalis; conditions: scored visually after about 3 weeks vs untreated controls
Text: as §3, §4, §2

ECHCG = test: as above; assay type: in vivo, Echinochloa crus-galli; conditions: scored visually after about 3 weeks vs untreated controls
Summary of the method: as §5

LOLRI = test: as above; assay type: in vivo, Lolium rigidum; conditions: scored visually after about 3 weeks vs untreated controls
Text: as §3, §4, §2

MATIN = test: as above; assay type: in vivo, Tripleurospermum inodorum; conditions: 320 g/ha, scored visually after about 3 weeks vs untreated controls
Summary of the method: as §5

PHBPU = test: as above; assay type: in vivo, Ipomoea purpurea; conditions: 320 g/ha, scored visually after about 3 weeks vs untreated controls
Summary of the method: as §5

POLCO = test: as above; assay type: in vivo, Fallopia convolvulus; conditions: scored visually after about 3 weeks vs untreated controls
Summary of the method: as §5

SETVI = test: as above; assay type: in vivo, Setaria viridis; conditions: scored visually after about 3 weeks vs untreated controls
Text: as §3, §4, §2

VIOTR [4] = test: as above; assay type: in vivo, Viola tricolor; conditions: scored visually after about 3 weeks vs untreated controls
Text: as §3, §4, §2

KCHSC = test: as above; assay type: in vivo; conditions: scored visually after about 3 weeks vs untreated controls
Text: as §3, with “control plants. Tables 1a to 19c below show the effects/crop compatibilities of selected compounds of the general formula (I) on various harmful plants at an application rate corresponding to 20 to 320 g/ha, which were obtained by the trial procedure specified above.” for “control plants.”

SMILES | plant injury at 20 g/ha (ZEAMX [1]) [%] | plant injury at 80 g/ha (ZEAMX [1]) [%] | plant injury at 320 g/ha (ZEAMX [1]) [%] | percent crop injury (phytotoxicity) to wheat, post-emergence at 20 g/ha (TRZAS) [%] | Post-emergence effect at 320 g/ha against BRSNW in % (BRSNW) [%] | Pre-emergence effect at 20 g/ha against ZEAMX in % (ZEAMX [3]) [%] | Pre-emergence effect at 320 g/ha against ALOMY in % (ALOMY) [%] | Pre-emergence effect at 80 g/ha against AMARE in % (AMARE) [%] | Pre-emergence effect at 320 g/ha against AVEFA in % (AVEFA) [%] | Pre-emergence effect at 320 g/ha against DIGSA in % (DIGSA) [%] | Pre-emergence effect at 320 g/ha against LOLRI in % (LOLRI) [%] | Pre-emergence effect at 320 g/ha against VIOTR in % (VIOTR [4]) [%] | Pre-emergence effect at 320 g/ha against KCHSC in % (KCHSC) [%] | also measured
CCOC(Oc1nn(-c2ccccc2F)c(-c2ccc(F)nc2)c1Br)C(=O)O (racemic) [Example I-51, (2RS)-{[4-Bromo-1-(2-fluorophenyl)-5-(6-fluoropyridin-3-yl)-1H-pyrazol-3-yl]oxy}(ethoxy)acetic acid] | 0 | 0 | 0 | 0 | 0 | – | – | – | – | – | – | – | – | pest or weed control at 320 g/ha (VIOTR [2]): 80%
CCOC(Oc1nn(-c2ccccc2F)c(-c2ccc(F)nc2)c1Br)C(=O)O (single isomer, unassigned) [Example I-65, (2R*)-{[4-Bromo-1-(2-fluorophenyl)-5-(6-fluoropyridin-3-yl)-1H-pyrazol-3-yl]oxy}(ethoxy)acetic acid] | 0 | 0 | 0 | 0 | 0 | – | – | – | – | – | – | – | – | –
COC(=O)CCOC(=O)C(OC)Oc1nn(-c2ncccc2F)c(-c2cncc(F)c2)c1C1CC1 (single isomer, unassigned) [Example I-76] | – | – | – | – | – | 20 | 90 | 100 | 100 | 90 | 100 | 100 | 100 | Pre-emergence effect at 80 g/ha against ABUTH in % (ABUTH; 80 g/ha): 90%; Pre-emergence effect at 320 g/ha against ABUTH in % (ABUTH; 320 g/ha): 90%; Pre-emergence effect at 80 g/ha against ALOMY in % (ALOMY; 80 g/ha): 90%; Pre-emergence effect at 20 g/ha against AMARE in % (AMARE; 20 g/ha): 80%; Pre-emergence effect at 320 g/ha against AMARE in % (AMARE; 320 g/ha): 100%; Pre-emergence effect at 80 g/ha against AVEFA in % (AVEFA; 80 g/ha): 90%; Pre-emergence effect at 80 g/ha against DIGSA in % (DIGSA; 80 g/ha): 80%; Pre-emergence effect at 80 g/ha against ECHCG in % (ECHCG; 80 g/ha): 90%; Pre-emergence effect at 320 g/ha against ECHCG in % (ECHCG; 320 g/ha): 100%; Pre-emergence effect at 80 g/ha against LOLRI in % (LOLRI; 80 g/ha): 90%; Pre-emergence effect at 320 g/ha against MATIN in % (MATIN): 90%; Pre-emergence effect at 320 g/ha against PHBPU in % (PHBPU): 90%; Pre-emergence effect at 80 g/ha against POLCO in % (POLCO; 80 g/ha): 90%; Pre-emergence effect at 320 g/ha against POLCO in % (POLCO; 320 g/ha): 90%; Pre-emergence effect at 80 g/ha against SETVI in % (SETVI; 80 g/ha): 90%; Pre-emergence effect at 320 g/ha against SETVI in % (SETVI; 320 g/ha): 100%; Pre-emergence effect at 80 g/ha against VIOTR in % (VIOTR [4]; 80 g/ha): 100%; Pre-emergence effect at 20 g/ha against KCHSC in % (KCHSC; 20 g/ha): 90%; Pre-emergence effect at 80 g/ha against KCHSC in % (KCHSC; 80 g/ha): 90%
COC(Oc1nn(-c2ncccc2F)c(-c2ccc(F)nc2)c1Br)C(=O)O (stereo not drawn) [Example I-45] | 0 | 0 | 0 | 0 | 0 | – | – | – | – | – | – | – | – | –
COC(=O)C(OC)Oc1nn(-c2ccccc2F)c(-c2ccc(F)nc2)c1I (stereo not drawn) [Example I-49] | – | – | – | – | – | 0 | 90 | 90 | 90 | 100 | 90 | 90 | 100 | Pre-emergence effect at 80 g/ha against ZEAMX in % (ZEAMX [3]; 80 g/ha): 0%; pest or weed control at 320 g/ha (AMARE; Amaranthus retroflexus, 504 h, 320 g/ha, read-out: Pre-emergence effect at 320 g/ha against AMARE in %): 100%; pest or weed control at 320 g/ha (ECHCG; Echinochloa crus-galli, 504 h, 320 g/ha, read-out: Pre-emergence effect at 320 g/ha against ECHCG in %): 90%; pest or weed control at 320 g/ha (MATIN; Tripleurospermum inodorum, 504 h, read-out: Pre-emergence effect at 320 g/ha against MATIN in %): 90%; pest or weed control at 320 g/ha (POLCO; Fallopia convolvulus, 504 h, 320 g/ha, read-out: Pre-emergence effect at 320 g/ha against POLCO in %): 80%; pest or weed control at 320 g/ha (SETVI; Setaria viridis, 504 h, 320 g/ha, read-out: Pre-emergence effect at 320 g/ha against SETVI in %): 100%
